Data: the kinase profiling compilation of Christmann-Franck et al. (2016)
Each block holds one molecule with its values, some of them ahead of it.

Key:
Assay in all cases: radiometric filter-binding kinase assay, Kinase HotSpot
Conditions in all cases: compound 0.5 µM; ATP 10 µM
ALK (human) = ALK (human) (UniProt Q9UM73)
AXL (human) = AXL (human) (UniProt P30530)
CAMK2B (human) = CAMK2B (human) (UniProt Q13554)
CDK1 CCNB1 (human) = CDK1 CCNB1 (human) (UniProt P06493+P14635)
CDK5 CDK5R1 p25 (human) = CDK5 CDK5R1 p25 (human) (UniProt Q00535+Q15078)
CDK6 CCND3 (human) = CDK6 CCND3 (human) (UniProt P30281+Q00534)
CDK9 CCNT1 (human) = CDK9 CCNT1 (human) (UniProt P50750+O60563)
CHEK1 (human) = CHEK1 (human) (UniProt O14757)
CSNK1A1 (human) = CSNK1A1 (human) (UniProt P48729)
CSNK2A1 (human) = CSNK2A1 (human) (UniProt P68400)
EPHB4 (human) = EPHB4 (human) (UniProt P54760)
ERBB4 (human) = ERBB4 (human) (UniProt Q15303)
FLT1 (human) = FLT1 (human) (UniProt P17948)
FLT3 (human) = FLT3 (human) (UniProt P36888)
FRK (human) = FRK (human) (UniProt P42685)
FYN (human) = FYN (human) (UniProt P06241)
GRK4 (human) = GRK4 (human) (UniProt P32298)
GRK5 (human) = GRK5 (human) (UniProt P34947)
GRK7 (human) = GRK7 (human) (UniProt Q8WTQ7)
KIT (human) = KIT (human) (UniProt P10721)
MAP4K5 (human) = MAP4K5 (human) (UniProt Q9Y4K4)
MAPK1 (human) = MAPK1 (human) (UniProt P28482)
MAPK11 (human) = MAPK11 (human) (UniProt Q15759)
MAPK13 (human) = MAPK13 (human) (UniProt O15264)
MAPKAPK3 (human) = MAPKAPK3 (human) (UniProt Q16644)
PAK1 (human) = PAK1 (human) (UniProt Q13153)
PDGFRA (human) = PDGFRA (human) (UniProt P16234)
PLK3 (human) = PLK3 (human) (UniProt Q9H4B4)
PRKACA (human) = PRKACA (human) (UniProt P17612)
PRKD1 (human) = PRKD1 (human) (UniProt Q15139)
PRKD2 (human) = PRKD2 (human) (UniProt Q9BZL6)
RAF1 (human) = RAF1 (human) (UniProt P04049)
RET (human) = RET (human) (UniProt P07949)
RPS6KA1 KD1 KD2 (human) = RPS6KA1 KD1 KD2 (human) (UniProt Q15418)
RPS6KA2 KD1 KD2 (human) = RPS6KA2 KD1 KD2 (human) (UniProt Q15349)
SRC (human) = SRC (human) (UniProt P12931)
STK10 (human) = STK10 (human) (UniProt O94804)
TBK1 (human) = TBK1 (human) (UniProt Q9UHD2)
TGFBR2 (human) = TGFBR2 (human) (UniProt P37173)
WEE1 (human) = WEE1 (human) (UniProt P30291)
WNK3 (human) = WNK3 (human) (UniProt Q9BYP7)

Sequence of CSNK1A1 (human) (P48729 whole entry, looked up): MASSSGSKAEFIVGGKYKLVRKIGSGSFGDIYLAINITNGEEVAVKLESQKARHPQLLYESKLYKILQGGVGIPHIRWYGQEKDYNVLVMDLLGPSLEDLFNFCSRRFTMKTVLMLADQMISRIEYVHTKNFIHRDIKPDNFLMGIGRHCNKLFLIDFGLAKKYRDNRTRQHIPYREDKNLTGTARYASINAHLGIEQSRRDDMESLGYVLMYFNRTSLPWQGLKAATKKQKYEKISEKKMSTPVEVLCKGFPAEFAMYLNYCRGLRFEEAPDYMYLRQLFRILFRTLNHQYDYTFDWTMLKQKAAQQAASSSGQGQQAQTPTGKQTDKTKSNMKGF
Sequence of MAPKAPK3 (human) (Q16644 whole entry, looked up): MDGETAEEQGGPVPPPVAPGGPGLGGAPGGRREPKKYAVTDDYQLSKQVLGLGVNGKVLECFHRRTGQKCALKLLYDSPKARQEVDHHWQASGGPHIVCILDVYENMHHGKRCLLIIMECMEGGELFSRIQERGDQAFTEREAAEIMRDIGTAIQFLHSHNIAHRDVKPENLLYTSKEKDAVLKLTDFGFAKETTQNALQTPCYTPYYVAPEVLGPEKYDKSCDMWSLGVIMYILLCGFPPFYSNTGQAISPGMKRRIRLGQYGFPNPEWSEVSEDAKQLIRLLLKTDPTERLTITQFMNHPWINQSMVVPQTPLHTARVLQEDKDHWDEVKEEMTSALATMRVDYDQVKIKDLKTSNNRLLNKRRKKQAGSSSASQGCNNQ
Sequence of CHEK1 (human) (O14757 whole entry, looked up): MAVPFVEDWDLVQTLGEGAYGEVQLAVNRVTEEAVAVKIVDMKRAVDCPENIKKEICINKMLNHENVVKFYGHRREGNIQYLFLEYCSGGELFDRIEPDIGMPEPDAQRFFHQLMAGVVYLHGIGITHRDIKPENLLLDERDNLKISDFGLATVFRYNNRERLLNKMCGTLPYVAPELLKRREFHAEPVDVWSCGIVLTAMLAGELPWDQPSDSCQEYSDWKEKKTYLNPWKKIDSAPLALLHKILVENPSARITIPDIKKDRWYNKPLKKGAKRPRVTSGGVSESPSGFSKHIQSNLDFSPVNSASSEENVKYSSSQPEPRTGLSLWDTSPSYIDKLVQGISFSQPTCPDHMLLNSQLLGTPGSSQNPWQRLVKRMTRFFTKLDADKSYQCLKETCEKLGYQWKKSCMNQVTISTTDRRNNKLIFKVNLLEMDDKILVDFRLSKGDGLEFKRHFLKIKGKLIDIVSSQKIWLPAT
Sequence of FLT1 (human) (P17948 whole entry, looked up): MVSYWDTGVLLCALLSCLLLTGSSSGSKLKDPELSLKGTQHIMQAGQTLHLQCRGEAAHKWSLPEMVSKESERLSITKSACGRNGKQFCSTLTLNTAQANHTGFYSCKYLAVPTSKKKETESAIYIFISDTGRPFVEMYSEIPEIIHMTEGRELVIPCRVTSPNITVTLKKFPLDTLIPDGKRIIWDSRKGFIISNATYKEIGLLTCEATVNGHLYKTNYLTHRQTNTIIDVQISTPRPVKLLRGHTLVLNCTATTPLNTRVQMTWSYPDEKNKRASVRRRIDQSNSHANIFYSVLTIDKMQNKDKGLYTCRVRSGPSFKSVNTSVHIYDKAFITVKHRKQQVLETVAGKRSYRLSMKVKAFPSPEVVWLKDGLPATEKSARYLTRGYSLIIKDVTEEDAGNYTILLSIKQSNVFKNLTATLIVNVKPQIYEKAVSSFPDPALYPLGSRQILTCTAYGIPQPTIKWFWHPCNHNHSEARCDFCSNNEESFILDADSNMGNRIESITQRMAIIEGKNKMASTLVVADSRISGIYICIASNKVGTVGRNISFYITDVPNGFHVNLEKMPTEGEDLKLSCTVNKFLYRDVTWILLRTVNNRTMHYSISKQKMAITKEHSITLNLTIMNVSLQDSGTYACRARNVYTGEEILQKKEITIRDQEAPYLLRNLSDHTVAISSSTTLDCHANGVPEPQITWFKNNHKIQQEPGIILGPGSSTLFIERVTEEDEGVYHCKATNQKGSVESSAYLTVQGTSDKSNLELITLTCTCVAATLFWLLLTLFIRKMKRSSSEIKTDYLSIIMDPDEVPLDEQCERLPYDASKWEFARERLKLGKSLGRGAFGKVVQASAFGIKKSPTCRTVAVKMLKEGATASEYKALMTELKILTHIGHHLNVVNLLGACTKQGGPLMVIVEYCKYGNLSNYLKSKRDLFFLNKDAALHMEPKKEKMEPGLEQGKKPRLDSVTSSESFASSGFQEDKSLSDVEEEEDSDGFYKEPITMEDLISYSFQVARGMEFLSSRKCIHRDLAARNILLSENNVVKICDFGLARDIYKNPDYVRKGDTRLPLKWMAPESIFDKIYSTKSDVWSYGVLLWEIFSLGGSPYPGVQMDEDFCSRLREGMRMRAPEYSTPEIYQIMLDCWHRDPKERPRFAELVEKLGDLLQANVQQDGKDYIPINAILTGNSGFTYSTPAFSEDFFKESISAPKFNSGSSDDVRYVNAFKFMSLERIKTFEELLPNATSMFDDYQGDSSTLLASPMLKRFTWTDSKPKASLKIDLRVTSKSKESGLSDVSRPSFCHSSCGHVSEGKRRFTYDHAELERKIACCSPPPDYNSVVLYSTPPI
Sequence of PAK1 (human) (Q13153 whole entry, looked up): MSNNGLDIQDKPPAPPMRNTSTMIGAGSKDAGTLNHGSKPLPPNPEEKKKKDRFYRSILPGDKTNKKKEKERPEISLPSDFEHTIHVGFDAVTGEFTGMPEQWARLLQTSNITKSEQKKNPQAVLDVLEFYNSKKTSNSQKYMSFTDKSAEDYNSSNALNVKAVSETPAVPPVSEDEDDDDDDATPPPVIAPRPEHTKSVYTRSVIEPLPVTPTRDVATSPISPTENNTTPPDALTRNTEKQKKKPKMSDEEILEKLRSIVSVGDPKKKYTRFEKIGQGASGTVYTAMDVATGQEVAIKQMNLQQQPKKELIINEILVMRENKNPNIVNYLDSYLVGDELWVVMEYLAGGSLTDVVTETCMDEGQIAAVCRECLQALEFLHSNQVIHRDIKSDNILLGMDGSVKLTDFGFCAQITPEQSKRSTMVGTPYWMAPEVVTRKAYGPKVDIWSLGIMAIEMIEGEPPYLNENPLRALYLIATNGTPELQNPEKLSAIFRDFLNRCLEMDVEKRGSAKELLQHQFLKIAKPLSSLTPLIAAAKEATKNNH
Sequence of PRKD2 (human) (Q9BZL6 whole entry, looked up): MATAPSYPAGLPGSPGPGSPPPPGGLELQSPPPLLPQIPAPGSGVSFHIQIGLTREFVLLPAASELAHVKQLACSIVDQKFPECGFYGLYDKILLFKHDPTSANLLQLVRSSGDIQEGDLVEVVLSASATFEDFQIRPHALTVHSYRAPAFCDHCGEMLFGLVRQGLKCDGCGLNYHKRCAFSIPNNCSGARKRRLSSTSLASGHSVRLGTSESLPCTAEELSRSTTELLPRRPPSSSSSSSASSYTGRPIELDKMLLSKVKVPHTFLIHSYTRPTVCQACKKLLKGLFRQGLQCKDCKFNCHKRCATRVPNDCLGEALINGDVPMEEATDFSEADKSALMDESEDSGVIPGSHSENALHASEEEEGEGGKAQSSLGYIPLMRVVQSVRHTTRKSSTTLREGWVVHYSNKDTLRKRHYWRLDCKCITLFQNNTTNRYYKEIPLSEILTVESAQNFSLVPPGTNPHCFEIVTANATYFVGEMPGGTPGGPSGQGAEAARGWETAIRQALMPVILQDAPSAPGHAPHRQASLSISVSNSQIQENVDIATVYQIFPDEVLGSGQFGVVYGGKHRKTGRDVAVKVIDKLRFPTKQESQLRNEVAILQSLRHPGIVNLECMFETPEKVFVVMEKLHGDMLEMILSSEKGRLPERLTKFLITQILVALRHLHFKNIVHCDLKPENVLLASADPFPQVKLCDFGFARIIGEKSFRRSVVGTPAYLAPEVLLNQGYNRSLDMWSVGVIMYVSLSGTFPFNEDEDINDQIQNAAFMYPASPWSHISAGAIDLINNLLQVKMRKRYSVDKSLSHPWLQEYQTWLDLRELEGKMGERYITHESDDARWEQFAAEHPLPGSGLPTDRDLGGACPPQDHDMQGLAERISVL
Sequence of KIT (human) (P10721 whole entry, looked up): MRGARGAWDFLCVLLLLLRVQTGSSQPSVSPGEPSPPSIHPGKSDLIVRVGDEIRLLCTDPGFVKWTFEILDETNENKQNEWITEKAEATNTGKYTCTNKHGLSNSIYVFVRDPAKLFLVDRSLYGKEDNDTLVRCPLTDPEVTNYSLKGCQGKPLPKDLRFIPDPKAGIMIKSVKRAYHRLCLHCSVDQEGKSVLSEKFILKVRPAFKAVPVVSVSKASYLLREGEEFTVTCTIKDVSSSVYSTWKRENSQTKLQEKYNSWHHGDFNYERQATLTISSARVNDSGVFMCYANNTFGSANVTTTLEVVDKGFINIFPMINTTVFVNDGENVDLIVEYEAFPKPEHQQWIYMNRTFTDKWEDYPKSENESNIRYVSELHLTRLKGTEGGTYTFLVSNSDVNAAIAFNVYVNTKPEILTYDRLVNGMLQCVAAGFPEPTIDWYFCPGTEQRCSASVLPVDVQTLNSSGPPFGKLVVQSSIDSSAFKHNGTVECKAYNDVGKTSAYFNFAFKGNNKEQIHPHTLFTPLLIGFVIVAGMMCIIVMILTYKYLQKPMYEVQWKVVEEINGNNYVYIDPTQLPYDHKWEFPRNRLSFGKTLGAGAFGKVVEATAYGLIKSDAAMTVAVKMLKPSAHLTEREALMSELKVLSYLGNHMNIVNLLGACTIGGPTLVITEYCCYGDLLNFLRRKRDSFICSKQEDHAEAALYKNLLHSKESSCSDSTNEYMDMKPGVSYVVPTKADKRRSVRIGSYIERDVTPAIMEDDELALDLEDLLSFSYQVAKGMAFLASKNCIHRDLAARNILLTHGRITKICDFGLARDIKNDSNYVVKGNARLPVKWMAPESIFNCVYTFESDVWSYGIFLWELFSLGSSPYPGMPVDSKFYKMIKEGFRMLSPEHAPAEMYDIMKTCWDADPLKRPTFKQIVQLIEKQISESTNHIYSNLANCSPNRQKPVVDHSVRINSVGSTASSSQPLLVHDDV

SMILES: CC#CC(=O)Nc1cc2c(Nc3ccc(F)c(Cl)c3)ncnc2cn1
residual activity (ALK (human)): 103%
residual activity (AXL (human)): 100%
residual activity (CAMK2B (human)): 99.6%
residual activity (CDK1 CCNB1 (human)): 99.5%
residual activity (CDK5 CDK5R1 p25 (human)): 99.2%
residual activity (CDK6 CCND3 (human)): 103%
residual activity (CDK9 CCNT1 (human)): 90.6%
residual activity (CHEK1 (human)): 106%
residual activity (CSNK1A1 (human)): 107%
residual activity (CSNK2A1 (human)): 90.9%
residual activity (EPHB4 (human)): 83.4%
residual activity (ERBB4 (human)): 1.95%
residual activity (FLT1 (human)): 100%
residual activity (FLT3 (human)): 92.1%
residual activity (FRK (human)): 102%
residual activity (FYN (human)): 95.8%
residual activity (GRK4 (human)): 104%
residual activity (GRK5 (human)): 105%
residual activity (GRK7 (human)): 106%
residual activity (KIT (human)): 98.5%
residual activity (MAP4K5 (human)): 100%
residual activity (MAPK1 (human)): 101%
residual activity (MAPK11 (human)): 96.2%
residual activity (MAPK13 (human)): 105%
residual activity (MAPKAPK3 (human)): 105%
residual activity (PAK1 (human)): 94.5%
residual activity (PDGFRA (human)): 94.9%
residual activity (PLK3 (human)): 100%
residual activity (PRKACA (human)): 97.7%
residual activity (PRKD1 (human)): 98.7%
residual activity (PRKD2 (human)): 97.6%
residual activity (RAF1 (human)): 85.6%
residual activity (RET (human)): 84.3%
residual activity (RPS6KA1 KD1 KD2 (human)): 95.1%
residual activity (RPS6KA2 KD1 KD2 (human)): 105%
residual activity (SRC (human)): 97.7%
residual activity (STK10 (human)): 72.6%
residual activity (TBK1 (human)): 105%
residual activity (TGFBR2 (human)): 123%
residual activity (WEE1 (human)): 93.2%
residual activity (WNK3 (human)): 95.1%

residual activity (ALK (human)): 80.6%
residual activity (AXL (human)): 113%
residual activity (CAMK2B (human)): 102%
residual activity (CDK1 CCNB1 (human)): 110%
residual activity (CDK6 CCND3 (human)): 97.2%
residual activity (CDK9 CCNT1 (human)): 104%
residual activity (CHEK1 (human)): 113%
residual activity (CSNK1A1 (human)): 84.9%
residual activity (CSNK2A1 (human)): 102%
residual activity (EPHB4 (human)): 98.3%
residual activity (ERBB4 (human)): 11.9%
residual activity (FLT1 (human)): 76.9%
residual activity (FLT3 (human)): 4.48%
residual activity (FRK (human)): 6.25%
residual activity (FYN (human)): 3.51%
residual activity (GRK4 (human)): 103%
residual activity (GRK5 (human)): 102%
residual activity (GRK7 (human)): 114%
residual activity (KIT (human)): 21.6%
residual activity (MAP4K5 (human)): 80.2%
residual activity (MAPK1 (human)): 80.7%
residual activity (MAPK11 (human)): 106%
residual activity (MAPK13 (human)): 95.3%
residual activity (MAPKAPK3 (human)): 109%
residual activity (PAK1 (human)): 96%
residual activity (PDGFRA (human)): 65%
residual activity (PLK3 (human)): 105%
residual activity (PRKACA (human)): 100%
residual activity (PRKD1 (human)): 96.2%
residual activity (PRKD2 (human)): 91.5%
residual activity (RAF1 (human)): 71.3%
residual activity (RET (human)): 9.97%
residual activity (RPS6KA1 KD1 KD2 (human)): 94.2%
residual activity (RPS6KA2 KD1 KD2 (human)): 101%
residual activity (SRC (human)): 13.4%
residual activity (STK10 (human)): 73.1%
residual activity (TBK1 (human)): 92.7%
residual activity (TGFBR2 (human)): 166%
residual activity (WEE1 (human)): 77.8%
residual activity (WNK3 (human)): 85.2%
SMILES: Nc1ncnc2c1c(-c1ccc(Oc3ccccc3)cc1)cn2C1CCCC1

SMILES: Cc1ccc(Nc2nccc(N(C)c3ccc4c(C)n(C)nc4c3)n2)cc1S(N)(=O)=O
residual activity (ALK (human)): 85.3%
residual activity (AXL (human)): 78.1%
residual activity (CAMK2B (human)): 95.5%
residual activity (CDK1 CCNB1 (human)): 99.6%
residual activity (CDK5 CDK5R1 p25 (human)): 95.1%
residual activity (CDK6 CCND3 (human)): 96.1%
residual activity (CDK9 CCNT1 (human)): 91.5%
residual activity (CHEK1 (human)): 110%
residual activity (CSNK1A1 (human)): 100%
residual activity (CSNK2A1 (human)): 114%
residual activity (EPHB4 (human)): 93.8%
residual activity (ERBB4 (human)): 86.9%
residual activity (FLT1 (human)): 27.2%
residual activity (FLT3 (human)): 40.7%
residual activity (FRK (human)): 58.1%
residual activity (GRK4 (human)): 91.7%
residual activity (GRK5 (human)): 99.6%
residual activity (GRK7 (human)): 96.5%
residual activity (KIT (human)): 10.9%
residual activity (MAP4K5 (human)): 30.3%
residual activity (MAPK1 (human)): 103%
residual activity (MAPK11 (human)): 93.3%
residual activity (MAPK13 (human)): 94.6%
residual activity (MAPKAPK3 (human)): 98.5%
residual activity (PAK1 (human)): 89.1%
residual activity (PDGFRA (human)): 13.9%
residual activity (PLK3 (human)): 101%
residual activity (PRKACA (human)): 94.5%
residual activity (PRKD1 (human)): 96.9%
residual activity (PRKD2 (human)): 90.8%
residual activity (RAF1 (human)): 9.43%
residual activity (RET (human)): 25.7%
residual activity (RPS6KA1 KD1 KD2 (human)): 92.8%
residual activity (RPS6KA2 KD1 KD2 (human)): 93.2%
residual activity (SRC (human)): 70.7%
residual activity (STK10 (human)): 50.1%
residual activity (TBK1 (human)): 99.5%
residual activity (TGFBR2 (human)): 100%
residual activity (WEE1 (human)): 95.3%
residual activity (WNK3 (human)): 98.6%

SMILES: Cc1ccc(S(=O)(=O)/C=C/C#N)cc1
residual activity (ALK (human)): 103%
residual activity (CAMK2B (human)): 106%
residual activity (CDK1 CCNB1 (human)): 92.3%
residual activity (CDK5 CDK5R1 p25 (human)): 86.8%
residual activity (CDK6 CCND3 (human)): 104%
residual activity (CDK9 CCNT1 (human)): 98.2%
residual activity (CHEK1 (human)): 97.5%
residual activity (CSNK1A1 (human)): 95.6%
residual activity (CSNK2A1 (human)): 94.3%
residual activity (EPHB4 (human)): 102%
residual activity (ERBB4 (human)): 99.7%
residual activity (FLT1 (human)): 92.8%
residual activity (FLT3 (human)): 100%
residual activity (FRK (human)): 91.6%
residual activity (FYN (human)): 95.4%
residual activity (GRK4 (human)): 96.8%
residual activity (GRK5 (human)): 105%
residual activity (GRK7 (human)): 92.6%
residual activity (KIT (human)): 102%
residual activity (MAP4K5 (human)): 97.8%
residual activity (MAPK1 (human)): 100%
residual activity (MAPK11 (human)): 102%
residual activity (MAPK13 (human)): 92.2%
residual activity (MAPKAPK3 (human)): 97.8%
residual activity (PAK1 (human)): 89.5%
residual activity (PDGFRA (human)): 94.2%
residual activity (PLK3 (human)): 97.1%
residual activity (PRKACA (human)): 100%
residual activity (PRKD1 (human)): 93.8%
residual activity (PRKD2 (human)): 98.1%
residual activity (RAF1 (human)): 104%
residual activity (RET (human)): 102%
residual activity (RPS6KA1 KD1 KD2 (human)): 91.6%
residual activity (RPS6KA2 KD1 KD2 (human)): 100%
residual activity (SRC (human)): 102%
residual activity (STK10 (human)): 90.6%
residual activity (TBK1 (human)): 83.9%
residual activity (TGFBR2 (human)): 97.9%
residual activity (WEE1 (human)): 96.4%
residual activity (WNK3 (human)): 110%

SMILES: COc1cc2ncnc(Nc3cccc(Cl)c3)c2cc1OC
residual activity (ALK (human)): 91.5%
residual activity (AXL (human)): 95.3%
residual activity (CAMK2B (human)): 91.2%
residual activity (CDK1 CCNB1 (human)): 90.3%
residual activity (CDK5 CDK5R1 p25 (human)): 87.3%
residual activity (CDK6 CCND3 (human)): 90.1%
residual activity (CDK9 CCNT1 (human)): 85.1%
residual activity (CHEK1 (human)): 93.7%
residual activity (CSNK1A1 (human)): 92.5%
residual activity (EPHB4 (human)): 59.7%
residual activity (ERBB4 (human)): 35.5%
residual activity (FLT1 (human)): 74.4%
residual activity (FLT3 (human)): 37.6%
residual activity (FRK (human)): 81.1%
residual activity (FYN (human)): 85.7%
residual activity (GRK4 (human)): 102%
residual activity (GRK5 (human)): 105%
residual activity (GRK7 (human)): 85.4%
residual activity (KIT (human)): 94%
residual activity (MAP4K5 (human)): 59.5%
residual activity (MAPK1 (human)): 91.7%
residual activity (MAPK11 (human)): 97.5%
residual activity (MAPK13 (human)): 99.8%
residual activity (MAPKAPK3 (human)): 92.7%
residual activity (PAK1 (human)): 89.3%
residual activity (PDGFRA (human)): 93.3%
residual activity (PLK3 (human)): 92.3%
residual activity (PRKACA (human)): 98.6%
residual activity (PRKD1 (human)): 92.3%
residual activity (PRKD2 (human)): 92.3%
residual activity (RAF1 (human)): 78.4%
residual activity (RET (human)): 35.3%
residual activity (RPS6KA1 KD1 KD2 (human)): 87.3%
residual activity (RPS6KA2 KD1 KD2 (human)): 85.5%
residual activity (SRC (human)): 71.9%
residual activity (STK10 (human)): 24.5%
residual activity (TBK1 (human)): 78%
residual activity (TGFBR2 (human)): 94.5%
residual activity (WEE1 (human)): 92.4%
residual activity (WNK3 (human)): 97.8%
